Results published in patent publication US11524966B1 (Valo Early Discovery, Inc., priority 2017, dated 2022).

target: T1, USP28 (His-tagged USP28-FL-mammalian) (Homo sapiens, UniProt Q96RU2); experiment: Ubiquitin-Rhodamine 110 Assay for USP28 Activity, Example A-1(a); type: biochemical; settings: Ubiquitin-Rhodamine 110 assay, format Example A-1(a); read-out: USP28 A-1(a) IC50 range
T1 construct: Expression of USP28 (1-1077)-TEV-6*His (pTT5 vector); made in house; host or cells: Expi293f cells (pTT5 vector)
T1 sequence (Q96RU2 1-1077): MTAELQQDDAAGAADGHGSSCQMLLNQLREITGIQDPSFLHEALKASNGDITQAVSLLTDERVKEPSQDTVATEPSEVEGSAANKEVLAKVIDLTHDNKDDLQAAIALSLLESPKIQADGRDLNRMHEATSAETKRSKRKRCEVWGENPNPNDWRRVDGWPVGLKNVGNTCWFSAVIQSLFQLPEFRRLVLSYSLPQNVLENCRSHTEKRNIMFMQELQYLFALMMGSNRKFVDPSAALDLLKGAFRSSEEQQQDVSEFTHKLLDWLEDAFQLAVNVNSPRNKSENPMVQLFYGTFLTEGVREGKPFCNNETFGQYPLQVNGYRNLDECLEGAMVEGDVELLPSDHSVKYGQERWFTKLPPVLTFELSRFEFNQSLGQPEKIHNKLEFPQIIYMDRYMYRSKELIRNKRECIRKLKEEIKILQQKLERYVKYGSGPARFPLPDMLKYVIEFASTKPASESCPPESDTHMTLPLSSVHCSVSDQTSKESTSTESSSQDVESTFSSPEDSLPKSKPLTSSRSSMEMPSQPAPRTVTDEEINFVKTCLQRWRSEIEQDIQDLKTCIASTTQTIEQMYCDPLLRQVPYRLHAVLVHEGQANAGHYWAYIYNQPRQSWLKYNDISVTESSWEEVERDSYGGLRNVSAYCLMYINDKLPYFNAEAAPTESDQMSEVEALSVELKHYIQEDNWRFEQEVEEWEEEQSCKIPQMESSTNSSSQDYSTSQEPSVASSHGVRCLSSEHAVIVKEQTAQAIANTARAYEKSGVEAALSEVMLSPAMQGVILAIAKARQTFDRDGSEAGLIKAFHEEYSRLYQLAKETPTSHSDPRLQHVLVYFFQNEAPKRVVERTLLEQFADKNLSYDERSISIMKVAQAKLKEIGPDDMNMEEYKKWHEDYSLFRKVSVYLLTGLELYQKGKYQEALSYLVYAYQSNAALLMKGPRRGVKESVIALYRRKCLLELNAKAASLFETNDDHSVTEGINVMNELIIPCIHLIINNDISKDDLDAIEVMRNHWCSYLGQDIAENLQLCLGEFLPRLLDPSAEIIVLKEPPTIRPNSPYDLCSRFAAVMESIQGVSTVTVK
Method in brief: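 Full-length His-tagged human USP28 (1-1077, Expi293f-expressed), […], with 25 nM Ub-Rh110 (<<Km) in pH 8.0 Tris buffer with BME, BGG, Triton X-100. 10-point dilutions (25 μM-1.3 nM), 45 min at room temperature, citric acid stop, fluorescence 485/535 nm; IC50 by 4-parameter fit.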

| SMILES | IC50 |
| --- | --- |
| Cc1ccc2c(N)c(C(=O)N[C@@H]3COc4c(ccc(N5CCNCC5)c4Cl)C3)sc2n1 [Example 13-8, (S)-3-amino-N-(8-chloro-7-(piperazin-1-yl)chroman-3-yl)-6-methylthieno[2,3-b]pyridine-2-carboxamide] | 200 to 2000 nM |
| Cc1ccc2c(N)c(C(=O)N[C@H]3COc4c(ccc(N5CCNCC5)c4Cl)C3)sc2n1 [Example 13_7, (R)-3-amino-N-(8-chloro-7-(piperazin-1-yl)chroman-3-yl)-6-methylthieno[2,3-b]pyridine-2-carboxamide] | 1 to 50 nM |
| Cc1ccc2c(N)c(C(=O)N[C@H]3COc4cc(N5CCNCC5)ncc4C3)sc2n1 [Example 16, (R)-3-Amino-6-methyl-N-(7-(piperazin-1-yl)-3,4-dihydro-2H-pyrano[3,2-c]pyridin-3-yl)thieno[2,3-b]pyridine-2-carboxamide] | 1 to 50 nM |
| Cc1ccc2c(N)c(C(=O)N[C@H]3COc4cc(N5CC6CCC(C5)N6)nc(F)c4C3)sc2n1 [Example 17, N-((3R)-7-(3,8-Diazabicyclo[3.2.1]octan-3-yl)-5-fluoro-3,4-dihydro-2H-pyrano[3,2-c]pyridin-3-yl)-3-amino-6-methylthieno[2,3-b]pyridine-2-carboxamide] | 1 to 50 nM |
| Cc1ccc2c(N)c(C(=O)N[C@H]3COc4c(cnc(N5CC6CCC(C5)N6)c4F)C3)sc2n1 [Example 18, N-((3R)-7-(3,8-Diazabicyclo[3.2.1]octan-3-yl)-8-fluoro-3,4-dihydro-2H-pyrano[3,2-c]pyridin-3-yl)-3-amino-6-methylthieno[2,3-b]pyridine-2-carboxamide] | 1 to 50 nM |
| Cc1ccc2c(N)c(C(=O)N[C@H]3COc4nc(N5CCNCC5)ccc4C3)sc2n1 [Example 19, (R)-3-Amino-6-methyl-N-(7-(piperazin-1-yl)-3,4-dihydro-2H-pyrano[2,3-b]pyridin-3-yl)thieno[2,3-b]pyridine-2-carboxamide] | 50 to 200 nM |
| Cc1ccc2c(N)c(C(=O)N[C@H]3COc4nc(N5CCNCC5)c(F)cc4C3)sc2n1 [Example 20, (R)-3-Amino-N-(6-fluoro-7-(piperazin-1-yl)-3,4-dihydro-2H-pyrano[2,3-b]pyridin-3-yl)-6-methylthieno[2,3-b]pyridine-2-carboxamide] | 50 to 200 nM |
| CO[C@H]1CN(c2ccc3c(n2)CC[C@H](NC(=O)c2sc4nc(C)cc(C)c4c2N)C3)C[C@@H]1N [Example 23-3, 3-amino-N-[(6S)-2-[(3S,4S)-3-amino-4-methoxypyrrolidin-1-yl]-5,6,7,8-tetrahydroquinolin-6-yl]-4,6-dimethylthieno[2,3-b]pyridine-2-carboxamide] | 50 to 200 nM |
| CO[C@H]1CN(c2ccc3c(n2)CC[C@H](NC(=O)c2sc4nc(C)ccc4c2N)C3)C[C@@H]1N [Example 23-4, 3-amino-N-[(6S)-2-[(3S,4S)-3-amino-4-methoxypyrrolidin-1-yl]-5,6,7,8-tetrahydroquinolin-6-yl]-6-methylthieno[2,3-b]pyridine-2-carboxamide] | 50 to 200 nM |
| CO[C@H]1CN(c2ccc3c(n2)CC[C@@H](NC(=O)c2sc4nc(C)ccc4c2N)C3)C[C@@H]1N [Example 23-5, 3-amino-N-[(6R)-2-[(3S,4S)-3-amino-4-methoxypyrrolidin-1-yl]-5,6,7,8-tetrahydroquinolin-6-yl]-6-methylthieno[2,3-b]pyridine-2-carboxamide] | 200 to 2000 nM |
